Experimental data taken from patent publication US11214803B2, “Modulators of YAP1 expression” (Ionis Pharmaceuticals, Inc., priority 2019, dated 2022).
Strand notation (5' to 3'): a small letter for the sugar, then the base; units joined by * are phosphorothioate-linked, units joined directly phosphodiester-linked; [ ] holds rarer units or linkages, { } end groups; capitals alone tell only the bases. e = 2'-O-(2-methoxyethyl) (MOE); k = constrained ethyl (cEt); [5mC] = 5-methylcytosine; d = 2'-deoxy (DNA); m = 2'-O-methyl

What was measured:
Type in all cases: cell-based
[1] = tested on: Yap1 mRNA; assay: Antisense inhibition of human Yap1 in SNU-449 cells by modified oligonucleotides, single dose (Example 5, RTS36584); details: for YAP1 (% UTC): SNU-449 cells, 10,000 cells per well, approximately 48 hours, RTS36584
Description: Modified oligonucleotides with additional chemistry modifications were designed to target a Yap1 nucleic acid and were tested for their effect on Yap1 mRNA level in SNU-449 cells. The modified oligonucleotides were tested in a series of experiments that had similar culture conditions. Cultured SNU-449 cells at a density of 10,000 cells per well were treated using free uptake with 2,000 nM of modified oligonucleotide. After a treatment period of approximately 48 hours, RNA was isolated from the cells and Yap1 mRNA levels were measured by quantitative real-time RTPCR. Human primer probe set RTS36584 was used to measure mRNA levels. Yap1 mRNA levels were normalized to total RNA content, as measured by RIBOGREEN®. Results are presented in the tables below as percent control of the amount of Yap1 mRNA relative to untreated control cells (% UTC). The modified oligonucleotides with percent control values marked with an asterisk (*) target the amplicon region of the primer probe set. Additional assays may be used to measure the potency and efficacy of the modified oligonucleotides targeting the amplicon region.
Several different chemistry modifications were tested, which are specified in the Chemistry Notation column of the tables below, wherein the notation “d” refers to a 2′-deoxyribose sugar, the notation “s” refers to a phosphorothioate (P═S) internucleoside linkage, the notation “k” refers to a cEt modified sugar, the notation “y” refers to a 2′-O-methyl ribose sugar, the notation “e” refers to a MOE modified sugar, and the notation “^mC” refers to a 5-methylcytosine.
“Start site” indicates the 5′-most nucleoside to which the gapmer is targeted in the human gene sequence. “Stop site” indicates the 3′-most nucleoside to which the gapmer is targeted human gene sequence. […] Activity of the modified oligonucleotide may be defined in a different experiment.

[2] = tested on: Yap1 mRNA; assay: Antisense inhibition of human Yap1 in A-431 cells by cEt gapmers, single dose (Example 2, RTS4814); details: 3-10-3 cEt gapmers targeting SEQ ID NO.: 1, and 2
How it was run: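 Single-dose knockdown screen of 3-10-3 cEt phosphorothioate gapmers at 2,000 nM added by free uptake to A-431 cells. After roughly 48 h, RNA was isolated and Yap1 transcript measured by RT-qPCR, with results given as % UTC.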

[3] = tested on: Yap1 mRNA; assay: Dose-dependent inhibition of human Yap1 in A-431 cells (Example 8, 10,000 cells per well, RTS4814); details: free uptake, approximately 48 hours, RTS4814; for Yap1 mRNA, % UTC: A-431 cells, 10,000 cells per well; for IC50: A-431 cells, linear regression on log/linear plot
How it was run: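 A-431 cells (10,000/well) dosed with modified oligonucleotides by free uptake; Yap1 mRNA measured ~48 h later with primer-probe set RTS4814, normalized to total RNA (RIBOGREEN). Values are % of untreated control; IC50 from linear regression on log/linear plot.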

[4] = Table 41, free uptake, 2,000 nM modified oligonucleotide, normalized to RIBOGREEN, Yap1 mRNA relative to untreated control cells
[5] = Table 48, Yap1 mRNA level relative to untreated control, modified oligonucleotides targeting SEQ ID NO.: 1 and 2
[6] = Table 42 (separate experiment), free uptake, 2,000 nM modified oligonucleotide, normalized to RIBOGREEN, Yap1 mRNA relative to untreated control cells
[7] = Yap1 mRNA as percent of untreated control, A-431 cells, Table 31
[8] = Table 32, Yap1 mRNA, percent of untreated control
[9] = Yap1 mRNA as percent of untreated control, A-431 cells, Table 30

1198841 (kT*kG*d[5mC]*dT*dT*dT*dG*dG*dA*dA*dG*kA*eT*k[5mC]*eT*kG; antisense) [Compound 1198841]
YAP1 (% UT) ([1]; Table 46, Yap1 mRNA as percent of untreated control, SNU-449 cells, single dose): 116 % UT

1197221 (antisense kA*kG*kT*dA*dA*dG*dG*dT*dT*dT*d[5mC]*d[5mC]*d[5mC]*kA*kG*kA) [Compound 1197221]
YAP1 (% UT) ([1]; Yap1 mRNA, percent of untreated control, modified oligonucleotides targeting SEQ ID NO: 1 and 2, Table 47): 42 % UT

1198628 (TGTCTCATGCCTTATA; modified gapmer, chemistry not fully specified) [Compound 1198628]
YAP1 (% UTC) [1, 4]: 27 % UTC

1198613 (antisense kA*kA*kA*dG*dT*dG*dT*dA*dT*dG*dT*d[5mC]*kA*kG*kA*eA) [Compound 1198613]
YAP1 (% UT) ([1]; Table 50, Yap1 mRNA remaining as percent of untreated control (UT), SNU-449 cells, single dose): 3 % UT

1198527 (kA*kA*dA*dG*dT*dG*dT*dA*dT*dG*dT*e[5mC]*kA*eG*kA*eA; antisense) [Compound 1198527]
YAP1 (% UTC) ([1]; Table 44 experiment, free uptake, 2,000 nM, Yap1 mRNA normalized to RIBOGREEN, relative to untreated control cells): 5 % UTC

1197216 (antisense kA*kA*kA*dG*dT*dG*dT*dA*dT*dG*dT*d[5mC]*dA*kG*kA*kA) [Compound 1197216]
YAP1 (% UT) [1, 5]: 12 % UT

1097224 (antisense k[5mC]*kT*k[5mC]*dT*dT*dA*dT*dA*dT*dG*dG*dT*dT*kT*kT*kG) [Compound 1097224]
YAP1 (% UT) [1, 5]: 22 % UT

1198713 (kT*kT*dA*dG*dA*d[5mC]*dT*dA*dA*dG*dT*dA*kA*eG*kG*eT; antisense) [Compound 1198713]
YAP1 (% UTC) [1, 6]: 62 % UTC

1198689 (antisense kA*kA*dT*dA*dT*dT*dG*d[5mC]*dA*dA*dT*d[5mC]*kT*eG*kT*e[5mC]) [Compound 1198689]
YAP1 (% UTC) [1, 4]: 91 % UTC

1198651 (kT*kT*dA*d[5mC]*dA*dT*dT*dA*dG*dG*dA*dA*k[5mC]*eA*kA*eG; antisense) [Compound 1198651]
YAP1 (% UTC) [1, 4]: 94 % UTC

1198776 (kG*eA*k[5mC]*dA*dA*d[5mC]*dT*d[5mC]*dT*dT*dA*dT*eA*eT*kG*kG) [Compound 1198776]
YAP1 (% UTC) [1, 4]: 57 % UTC

1198214 (kT*kA*dT*dA*dT*dT*dA*dG*dA*dG*dT*eA*eT*eG*kT*kG; antisense) [Compound 1198214]
YAP1 (% UTC) [1, 6]: 91 % UTC

1198653 (k[5mC]*kT*dT*dT*dT*dA*d[5mC]*dA*dT*dT*dA*dG*kG*eA*kA*e[5mC]; antisense) [Compound 1198653]
YAP1 (% UTC) [1, 4]: 64 % UTC

1200825 (kT*kG*k[5mC]*dT*dT*mU*dG*dG*dA*dA*dG*dA*dT*k[5mC]*kT*kG; antisense) [Compound 1200825]
YAP1 (% UT) ([1]; Table 52, Yap1 mRNA, modified oligonucleotides targeting SEQ ID NO: 1 and 2): 39 % UT

1074737 (kT*kT*k[5mC]*dA*dG*dG*dT*d[5mC]*dA*dG*dT*dA*d[5mC]*kA*kG*kA; antisense) [compound 1074737]
YAP1 (% UTC) [2, 7]: 7 % UTC
Yap1 mRNA, % UTC ([3]; 31.3 nM): 50 % UTC
Yap1 mRNA, % UTC ([3]; 125.0 nM): 21 % UTC
Yap1 mRNA, % UTC ([3]; 500.0 nM): 8 % UTC
Yap1 mRNA, % UTC ([3]; 2000.00 nM): 6 % UTC
IC50 [3]: < 20 nM

1076049 (kA*kG*kA*dT*dT*dA*dA*dA*dG*dG*d[5mC]*dT*dG*kG*kA*kA; antisense) [compound 1076049]
YAP1 (% UTC) [2, 7]: 4 % UTC
Yap1 mRNA, % UTC ([3]; 31.3 nM): 61 % UTC
Yap1 mRNA, % UTC ([3]; 125.0 nM): 16 % UTC
Yap1 mRNA, % UTC ([3]; 500.0 nM): 13 % UTC
Yap1 mRNA, % UTC ([3]; 2000.00 nM): 6 % UTC
IC50 [3]: < 20 nM

1076114 (kA*kT*kT*dA*dG*dT*dA*dA*dG*d[5mC]*dT*dG*dA*kG*kG*kA; antisense) [compound 1076114]
YAP1 (% UTC) [2, 8]: 3 % UTC
Yap1 mRNA, % UTC ([3]; 31.3 nM): 34 % UTC
Yap1 mRNA, % UTC ([3]; 125.0 nM): 11 % UTC
Yap1 mRNA, % UTC ([3]; 500.0 nM): 6 % UTC
Yap1 mRNA, % UTC ([3]; 2000.00 nM): 5 % UTC
IC50 [3]: < 20 nM

1074417 (kT*k[5mC]*kT*dT*dT*dA*dG*dA*dG*d[5mC]*d[5mC]*dA*dA*k[5mC]*kT*kG; antisense) [compound 1074417]
YAP1 (% UTC) [2, 7]: 2 % UTC
Yap1 mRNA, % UTC ([3]; 31.3 nM): 68 % UTC
Yap1 mRNA, % UTC ([3]; 125.0 nM): 26 % UTC
Yap1 mRNA, % UTC ([3]; 500.0 nM): 7 % UTC
Yap1 mRNA, % UTC ([3]; 2000.00 nM): 3 % UTC
IC50 [3]: 100 nM

1076369 (antisense kT*kA*kT*dT*d[5mC]*dG*dG*dT*dA*dT*dT*dT*dT*k[5mC]*kT*kA) [compound 1076369]
YAP1 (% UTC) [2, 7]: 2 % UTC
Yap1 mRNA, % UTC ([3]; 31.3 nM): 60 % UTC
Yap1 mRNA, % UTC ([3]; 125.0 nM): 20 % UTC
Yap1 mRNA, % UTC ([3]; 500.0 nM): 6 % UTC
Yap1 mRNA, % UTC ([3]; 2000.00 nM): 3 % UTC
IC50 [3]: < 20 nM

1074672 (antisense k[5mC]*k[5mC]*kA*dA*dG*dT*dA*dG*d[5mC]*dT*dT*dT*dG*kA*kT*k[5mC]) [compound 1074672]
YAP1 (% UTC) [2, 9]: 6 % UTC
Yap1 mRNA, % UTC ([3]; 31.3 nM): 34 % UTC
Yap1 mRNA, % UTC ([3]; 125.0 nM): 18 % UTC
Yap1 mRNA, % UTC ([3]; 500.0 nM): 10 % UTC
Yap1 mRNA, % UTC ([3]; 2000.00 nM): 7 % UTC
IC50 [3]: < 20 nM

1076530 (kA*kG*kT*dA*dT*dA*dA*dA*dG*d[5mC]*dA*dG*dG*kG*k[5mC]*kA; antisense) [compound 1076530]
YAP1 (% UTC) [2, 8]: 5 % UTC
Yap1 mRNA, % UTC ([3]; 31.3 nM): 53 % UTC
Yap1 mRNA, % UTC ([3]; 125.0 nM): 26 % UTC
Yap1 mRNA, % UTC ([3]; 500.0 nM): 11 % UTC
Yap1 mRNA, % UTC ([3]; 2000.00 nM): 7 % UTC
IC50 [3]: < 20 nM

1074609 (DNA k[5mC]*kT*kA*dG*dT*dT*dA*d[5mC]*dA*dT*d[5mC]*dA*dT*k[5mC]*kT*k[5mC]) [compound 1074609]
YAP1 (% UTC) [2, 7]: 8 % UTC
Yap1 mRNA, % UTC ([3]; 31.3 nM): 65 % UTC
Yap1 mRNA, % UTC ([3]; 125.0 nM): 29 % UTC
Yap1 mRNA, % UTC ([3]; 500.0 nM): 15 % UTC
Yap1 mRNA, % UTC ([3]; 2000.00 nM): 11 % UTC
IC50 [3]: 100 nM

1074577 (DNA kT*kA*kT*dT*dT*d[5mC]*dT*dG*dT*d[5mC]*dA*dT*dG*k[5mC]*kA*k[5mC]) [compound 1074577]
YAP1 (% UTC) [2, 7]: 3 % UTC
Yap1 mRNA, % UTC ([3]; 31.3 nM): 33 % UTC
Yap1 mRNA, % UTC ([3]; 125.0 nM): 10 % UTC
Yap1 mRNA, % UTC ([3]; 500.0 nM): 4 % UTC
Yap1 mRNA, % UTC ([3]; 2000.00 nM): 3 % UTC
IC50 [3]: < 20 nM

1074608 (DNA kG*kT*kT*dA*d[5mC]*dA*dT*d[5mC]*dA*dT*d[5mC]*dT*d[5mC]*kT*kT*k[5mC]) [compound 1074608]
YAP1 (% UTC) [2, 9]: 5 % UTC
Yap1 mRNA, % UTC ([3]; 31.3 nM): 49 % UTC
Yap1 mRNA, % UTC ([3]; 125.0 nM): 20 % UTC
Yap1 mRNA, % UTC ([3]; 500.0 nM): 9 % UTC
Yap1 mRNA, % UTC ([3]; 2000.00 nM): 7 % UTC
IC50 [3]: < 20 nM
